Experiments:
[1] = biological target: GDP-bound HRAS wild-type protein (Homo sapiens, UniProt P01112); experiment: Binding to HRAS by surface plasmon resonance (SPR), Single Cycle Kinetics; conditions: KD ratio, GDP-bound HRAS wild-type vs GDP-bound KRAS wild-type, SPR
[2] = biological target: GDP-bound NRAS wild-type protein (Homo sapiens, UniProt P01111); experiment: Binding to NRAS by surface plasmon resonance (SPR), Single Cycle Kinetics; conditions: KD ratio, GDP-bound NRAS wild-type vs GDP-bound KRAS wild-type, SPR
Chain of GDP-bound NRAS wild-type protein (P01111 whole entry): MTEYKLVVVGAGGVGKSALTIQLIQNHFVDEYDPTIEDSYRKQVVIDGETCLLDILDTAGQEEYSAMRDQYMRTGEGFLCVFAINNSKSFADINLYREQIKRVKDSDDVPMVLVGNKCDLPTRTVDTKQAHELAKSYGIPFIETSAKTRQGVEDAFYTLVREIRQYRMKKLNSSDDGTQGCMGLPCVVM

Chain of GDP-bound HRAS wild-type protein (P01112 whole entry): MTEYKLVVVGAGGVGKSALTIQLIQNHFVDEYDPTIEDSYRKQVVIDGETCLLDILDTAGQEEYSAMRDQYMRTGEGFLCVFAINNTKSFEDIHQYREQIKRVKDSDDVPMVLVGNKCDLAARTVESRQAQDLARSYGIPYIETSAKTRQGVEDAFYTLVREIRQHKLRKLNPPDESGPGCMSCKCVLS

Compound | HRAS/KRAS (ratio of KD value for HRAS to KD value for KRAS) [1] | NRAS/KRAS (ratio of KD value for NRAS to KD value for KRAS) [2]
CCO[C@@H]1C[C@H]2C(=O)NC3(CCC3)C(=O)N(C)[C@@H](C3CCCC3)C(=O)N(C)[C@H](C(=O)N(CC)CC)CC(=O)N(C)[C@@H](CC(C)C)C(=O)N[C@@H]([C@@H](C)CC)C(=O)N(C)CC(=O)N(C)[C@H]3C/C=C\CCN(C3=O)[C@@H](Cc3ccc(C)cc3)C(=O)N(C)CC(=O)N[C@@H](CCc3ccc(C(F)(F)F)c(OC)c3)C(=O)N2C1 [PP1887] | B (a compound having 3 or more and less than 10 is denoted as B) | A (a compound having 10 or more and less than 20 is denoted as A)
CCC[C@H]1C(=O)N[C@@H]([C@@H](C)CC)C(=O)N(C)CC(=O)N(C)[C@H]2C/C=C\CCN(C2=O)[C@@H](Cc2ccc(C)cc2)C(=O)N(C)CC(=O)N[C@@H](CCc2ccc(C(F)(F)F)c(OC)c2)C(=O)N2C[C@@H](C)C[C@H]2C(=O)NC2(CC(C)(C)C2)C(=O)N(C)[C@@H](C2CCCC2)C(=O)N(C)[C@H](C(=O)N(C)C)CC(=O)N1C [PP1888] | B (a compound having 3 or more and less than 10 is denoted as B) | A (a compound having 10 or more and less than 20 is denoted as A)
CCC[C@H]1C(=O)N[C@@H]([C@@H](C)CC)C(=O)N(C)CC(=O)N(C)[C@H]2C/C=C\CCN(C2=O)[C@@H](Cc2ccc(C)cc2)C(=O)N(C)CC(=O)N[C@@H](CCc2ccc(C(F)(F)F)c(OC)c2)C(=O)N2C[C@@H](C)C[C@H]2C(=O)NC2(CC(C)(C)C2)C(=O)N(C)[C@@H](C2CCCC2)C(=O)N(C)[C@H](C(=O)N(C)CC)CC(=O)N1C [PP1889] | B (a compound having 3 or more and less than 10 is denoted as B) | A (a compound having 10 or more and less than 20 is denoted as A)
CCC[C@H]1C(=O)N[C@@H]([C@@H](C)CC)C(=O)N(C)CC(=O)N(C)[C@H]2C/C=C\CCN(C2=O)[C@@H](Cc2ccc(C)cc2)C(=O)N(C)CC(=O)N[C@@H](CCc2ccc(C(F)(F)F)c(OC)c2)C(=O)N2C[C@H](C)C[C@H]2C(=O)NC2(CC(C)(C)C2)C(=O)N(C)[C@@H](C2CCCC2)C(=O)N(C)[C@H](C(=O)N(C)C)CC(=O)N1C [PP1890] | B (a compound having 3 or more and less than 10 is denoted as B) | A (a compound having 10 or more and less than 20 is denoted as A)
CCC[C@H]1C(=O)N[C@@H]([C@@H](C)CC)C(=O)N(C)CC(=O)N(C)[C@H]2C/C=C\CCN(C2=O)[C@@H](Cc2ccc(C)cc2)C(=O)N(C)CC(=O)N[C@@H](CCc2ccc(C(F)(F)F)c(OC)c2)C(=O)N2C[C@H](C)C[C@H]2C(=O)NC2(CC(C)(C)C2)C(=O)N(C)[C@@H](C2CCCC2)C(=O)N(C)[C@H](C(=O)N(C)CC)CC(=O)N1C [PP1891] | A (a compound having 10 or more and less than 20 is denoted as A) | A (a compound having 10 or more and less than 20 is denoted as A)
CCC[C@H]1C(=O)N[C@@H]([C@@H](C)CC)C(=O)N(C)CC(=O)N(C)[C@H]2C/C=C\CCN(C2=O)[C@@H](Cc2ccc(C)cc2)C(=O)N(C)CC(=O)N[C@@H](CCc2ccc(C(F)(F)F)c(OC)c2)C(=O)N2C[C@H](OCC)C[C@H]2C(=O)NC2(CC(C)(C)C2)C(=O)N(C)[C@@H](C2CCCC2)C(=O)N(C)[C@H](C(=O)N(C)C)CC(=O)N1C [PP1892] | B (a compound having 3 or more and less than 10 is denoted as B) | A (a compound having 10 or more and less than 20 is denoted as A)
CCC[C@H]1C(=O)N[C@@H]([C@@H](C)CC)C(=O)N(C)CC(=O)N(C)[C@H]2C/C=C\CCN(C2=O)[C@@H](Cc2ccc(C)cc2)C(=O)N(C)CC(=O)N[C@@H](CCc2ccc(C(F)(F)F)c(Cl)c2)C(=O)N2C[C@@H](C)C[C@H]2C(=O)NC2(CC(C)(C)C2)C(=O)N(C)[C@@H](C2CCCC2)C(=O)N(C)[C@H](C(=O)N(C)CC)CC(=O)N1C [PP1893] | B (a compound having 3 or more and less than 10 is denoted as B) | A (a compound having 10 or more and less than 20 is denoted as A)
CCC[C@H]1C(=O)N[C@@H]([C@@H](C)CC)C(=O)N(C)CC(=O)N(C)[C@H]2C/C=C\CCN(C2=O)[C@@H](Cc2ccc(C)cc2)C(=O)N(C)CC(=O)N[C@@H](CCc2ccc(C(F)(F)F)c(Cl)c2)C(=O)N2C[C@H](C)C[C@H]2C(=O)NC2(CC(C)(C)C2)C(=O)N(C)[C@@H](C2CCCC2)C(=O)N(C)[C@H](C(=O)N(C)CC)CC(=O)N1C [PP1894] | A (a compound having 10 or more and less than 20 is denoted as A) | A (a compound having 10 or more and less than 20 is denoted as A)
CCC[C@H]1C(=O)N[C@@H]([C@@H](C)CC)C(=O)N(C)CC(=O)N(C)[C@H]2C/C=C\CCN(C2=O)[C@@H](Cc2ccc(C)cc2)C(=O)N(C)CC(=O)N[C@@H](CCc2ccc(C(F)(F)F)c(Cl)c2)C(=O)N2C[C@H](OCC)C[C@H]2C(=O)NC2(CCC2)C(=O)N(C)[C@@H](C2CCCC2)C(=O)N(C)[C@H](C(=O)N(C)CC)CC(=O)N1C [PP1895] | B (a compound having 3 or more and less than 10 is denoted as B) | A (a compound having 10 or more and less than 20 is denoted as A)
CCC[C@H]1C(=O)N[C@@H]([C@@H](C)CC)C(=O)N(C)CC(=O)N(C)[C@H]2C/C=C\CCN(C2=O)[C@@H](Cc2ccc(C)cc2)C(=O)N(C)CC(=O)N[C@@H](CCc2ccc(C(F)(F)F)c(Cl)c2)C(=O)N2C[C@H](OCC)C[C@H]2C(=O)NC2(CC(C)(C)C2)C(=O)N(C)[C@@H](C2CCCC2)C(=O)N(C)[C@H](C(=O)N(C)C)CC(=O)N1C [PP1896] | B (a compound having 3 or more and less than 10 is denoted as B) | A (a compound having 10 or more and less than 20 is denoted as A)
CC[C@H](C)[C@@H]1NC(=O)[C@H](CC2CC2)N(C)C(=O)C[C@@H](C(=O)N(C)C)N(C)C(=O)[C@H](C2CCCC2)N(C)C(=O)C2(CC(C)(C)C2)NC(=O)[C@@H]2C[C@H](C)CN2C(=O)[C@H](CCc2ccc(C(F)(F)F)c(OC)c2)NC(=O)CN(C)C(=O)[C@H](Cc2ccc(C)cc2)N2CC/C=C\C[C@@H](C2=O)N(C)C(=O)CN(C)C1=O [PP1898] | B (a compound having 3 or more and less than 10 is denoted as B) | B (a compound having 3 or more and less than 10 is denoted as B)
CC[C@H](C)[C@@H]1NC(=O)[C@H](CC2CC2)N(C)C(=O)C[C@@H](C(=O)N(C)CC)N(C)C(=O)[C@H](C2CCCC2)N(C)C(=O)C2(CC(C)(C)C2)NC(=O)[C@@H]2C[C@H](C)CN2C(=O)[C@H](CCc2ccc(C(F)(F)F)c(OC)c2)NC(=O)CN(C)C(=O)[C@H](Cc2ccc(C)cc2)N2CC/C=C\C[C@@H](C2=O)N(C)C(=O)CN(C)C1=O [PP1899] | B (a compound having 3 or more and less than 10 is denoted as B) | A (a compound having 10 or more and less than 20 is denoted as A)
CC[C@H](C)[C@@H]1NC(=O)[C@H](CC2CC2)N(C)C(=O)C[C@@H](C(=O)N(C)C)N(C)C(=O)[C@H](C2CCCC2)N(C)C(=O)C2(CC(C)(C)C2)NC(=O)[C@@H]2C[C@@H](C)CN2C(=O)[C@H](CCc2ccc(C(F)(F)F)c(OC)c2)NC(=O)CN(C)C(=O)[C@H](Cc2ccc(C)cc2)N2CC/C=C\C[C@@H](C2=O)N(C)C(=O)CN(C)C1=O [PP1901] | B (a compound having 3 or more and less than 10 is denoted as B) | A (a compound having 10 or more and less than 20 is denoted as A)
CC[C@H](C)[C@@H]1NC(=O)[C@H](CC2CC2)N(C)C(=O)C[C@@H](C(=O)N(C)CC)N(C)C(=O)[C@H](C2CCCC2)N(C)C(=O)C2(CC(C)(C)C2)NC(=O)[C@@H]2C[C@@H](C)CN2C(=O)[C@H](CCc2ccc(C(F)(F)F)c(OC)c2)NC(=O)CN(C)C(=O)[C@H](Cc2ccc(C)cc2)N2CC/C=C\C[C@@H](C2=O)N(C)C(=O)CN(C)C1=O [PP1902] | A (a compound having 10 or more and less than 20 is denoted as A) | A (a compound having 10 or more and less than 20 is denoted as A)
CCO[C@@H]1C[C@H]2C(=O)NC3(CC(C)(C)C3)C(=O)N(C)[C@@H](C3CCCC3)C(=O)N(C)[C@H](C(=O)N(C)C)CC(=O)N(C)[C@@H](CC3CC3)C(=O)N[C@@H]([C@@H](C)CC)C(=O)N(C)CC(=O)N(C)[C@H]3C/C=C\CCN(C3=O)[C@@H](Cc3ccc(C)cc3)C(=O)N(C)CC(=O)N[C@@H](CCc3ccc(C(F)(F)F)c(OC)c3)C(=O)N2C1 [PP1903] | B (a compound having 3 or more and less than 10 is denoted as B) | A (a compound having 10 or more and less than 20 is denoted as A)
CC[C@H](C)[C@@H]1NC(=O)[C@H](CC(C)C)N(C)C(=O)C[C@@H](C(=O)N(C)CC)N(C)C(=O)[C@H](C2CCCC2)N(C)C(=O)C2(CCC2)NC(=O)[C@@H]2C[C@H](C)CN2C(=O)[C@H](CCc2ccc(C(F)(F)F)c(OC)c2)NC(=O)CN(C)C(=O)[C@H](Cc2ccc(C)cc2)N2CC/C=C\C[C@@H](C2=O)N(C)C(=O)CN(C)C1=O [PP1904] | B (a compound having 3 or more and less than 10 is denoted as B) | A (a compound having 10 or more and less than 20 is denoted as A)
CC[C@H](C)[C@@H]1NC(=O)[C@H](CC(C)C)N(C)C(=O)C[C@@H](C(=O)N(C)CC)N(C)C(=O)[C@H](C2CCCC2)N(C)C(=O)C2(CC(C)(C)C2)NC(=O)[C@@H]2C[C@H](C)CN2C(=O)[C@H](CCc2ccc(C(F)(F)F)c(OC)c2)NC(=O)CN(C)C(=O)[C@H](Cc2ccc(C)cc2)N2CC/C=C\C[C@@H](C2=O)N(C)C(=O)CN(C)C1=O [PP1906] | A (a compound having 10 or more and less than 20 is denoted as A) | A (a compound having 10 or more and less than 20 is denoted as A)

— US20250230193A1, “CYCLIC COMPOUND HAVING SELECTIVE KRAS INHIBITORY EFFECT ON HRAS AND NRAS” (CHUGAI SEIYAKU KABUSHIKI KAISHA, priority 2022, published 2025)
